The subject of this assay is 845751-090-R-J2-PDC tumor spheroid viability. Description: Anticancer human tumor 845751-090-R-J2-PDC patient-derived head and neck squamous carcinoma cell line growth inhibition [IpAb]. Conditions: spheroids with HUVEC and MSC; for viability, T/C: stronger effect = lower value. In a few lines:
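Combinations with ipatasertib or abemaciclib were tested on tumour spheroids holding HUVEC (25%) and MSC (15%) alongside 60% malignant cells. Top concentration was at or near clinical Cmax (10 microM if undefined), descending in half-log steps.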

Molecules are shown by their SMILES. “And” between values parts separate entries of the source, which are not always exact repeats. Equal values may be shown once.
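Also: spheroids exposed to compounds for 7 days before readout.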
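For viability, T/C in this document: CTG3D luminescence normalised so that 100% = DMSO vehicle control.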

Take `Cn1cnc2c(F)c(Nc3ccc(Br)cc3Cl)c(C(=O)NOCCO)cc21` + CCN1CCN(Cc2ccc(Nc3ncc(F)c(-c4cc(F)c5nc(C)n(C(C)C)c5c4)n3)nc2)CC1: the concentration for half-maximal inhibition (IC50) (curve of first compound, second compound 0.01 µM) is above 3 µM; the IC50 (curve of first compound, second compound 0.0316 µM) was above 3 µM; the IC50 (curve of first compound, second compound 0.1 µM) was above 3 µM; the IC50 (curve of first compound, second compound 0.316 µM) was above 3 µM; the IC50 (curve of first compound, second compound 1 µM) was above 3 µM. The viability, T/C is, setting by setting: (second compound 0.01 µM, first compound 0.00949 µM) 198%; (second compound 0.01 µM, first compound 0.03 µM) 194%; (second compound 0.01 µM, first compound 0.0949 µM) 139%; (second compound 0.01 µM, first compound 0.3 µM) 129%; (second compound 0.01 µM, first compound 0.949 µM) 109%; (second compound 0.01 µM, first compound 3 µM) 69.8%. Moreover, the viability, T/C reads like this: (second compound 0.0316 µM, first compound 0.00949 µM) 171%; (second compound 0.0316 µM, first compound 0.03 µM) 148%; (second compound 0.0316 µM, first compound 0.0949 µM) 125%; (second compound 0.0316 µM, first compound 0.3 µM) 107%; (second compound 0.0316 µM, first compound 0.949 µM) 89.3%; (second compound 0.0316 µM, first compound 3 µM) 71.5%. Besides, the viability, T/C runs as follows: (second compound 0.1 µM, first compound 0.00949 µM) 147%; (second compound 0.1 µM, first compound 0.03 µM) 137%; (second compound 0.1 µM, first compound 0.0949 µM) 135%; (second compound 0.1 µM, first compound 0.3 µM) 106%; (second compound 0.1 µM, first compound 0.949 µM) 82.3%; (second compound 0.1 µM, first compound 3 µM) 63.8%. The viability, T/C by setting is: (second compound 0.316 µM, first compound 0.00949 µM) 163%; (second compound 0.316 µM, first compound 0.03 µM) 150%; (second compound 0.316 µM, first compound 0.0949 µM) 136%; (second compound 0.316 µM, first compound 0.3 µM) 128%; (second compound 0.316 µM, first compound 0.949 µM) 101%; (second compound 0.316 µM, first compound 3 µM) 97.2%. For the same molecule, the viability, T/C is, setting by setting: (second compound 1 µM, first compound 0.00949 µM) 159%; (second compound 1 µM, first compound 0.03 µM) 167%; (second compound 1 µM, first compound 0.0949 µM) 138%; (second compound 1 µM, first compound 0.3 µM) 114%; (second compound 1 µM, first compound 0.949 µM) 107%; (second compound 1 µM, first compound 3 µM) 64%.
Take `Cn1nccc1Nc1nccc(-c2ccn(C(CO)c3ccc(Cl)c(F)c3)c(=O)c2)n1` (stereo not given): the viability, T/C (compound 0.0316 µM) is 128% and 195%; the viability, T/C (compound 0.1 µM) was 141% and 196%; the viability, T/C (compound 0.316 µM) was 155% and 220%; the viability, T/C (compound 1 µM) was 168% and 256%; the viability, T/C (compound 3.16 µM) was 149% and 198%; the viability, T/C (compound 10 µM) was 85.6% and 134%. Under “curve of compound”, the IC50 is above 10 µM.
For the molecule `CCN1CCN(Cc2ccc(Nc3ncc(F)c(-c4cc(F)c5nc(C)n(C(C)C)c5c4)n3)nc2)CC1`, where the note is “compound alone, run of 05/18/2021”, the IC50 is above 1 µM.
Consider `C=CCn1c(=O)c2cnc(Nc3ccc(N4CCN(C)CC4)cc3)nc2n1-c1cccc(C(C)(C)O)n1`, for which the viability, T/C runs as follows: (compound 0.0316 µM) 98.5% and 92.5%; (compound 0.1 µM) 75.5% and 64.4%; (compound 0.316 µM) 70.1% and 55.9%; (compound 1 µM) 68.8% and 58.6%; (compound 3.16 µM) 68.3% and 69.5%; (compound 10 µM) 49.5% and 53.6%. Under “curve of compound”, the IC50 is above 10 µM.

These data come from PubChem BioAssay AID2060333 (Molecular Pharmacology Branch, DTP, NCI, 2025).
